We go through seven compounds from patent US20260265221A1, “PARP INHIBITOR, AND PREPARATION METHOD THEREFOR AND MEDICAL USE THEREOF” (WIGEN BIOMEDICINE TECHNOLOGY (SHANGHAI) CO., LTD., priority 2023, published 2026).

A short description of data set [1]: In vitro liver microsomal stability, mouse. Format: in vitro ADME. To be noted: 1 μM compound, 500 μg/mL liver microsomes, NADPH. Background: Microsomes from liver hold many membrane-bound enzymes, among them those of drug oxidation.
Another data set concerns MDA-MB-436 cells. The data set is described as follows: In vitro inhibition of MDA-MB-436 cell proliferation (CTG, 10 days). In kind it is cell-based. To be noted: Homo sapiens, MDA-MB-436, 240 h, 10 days incubation, read-out: Inhibitory activity against MDA-MB-436 cells (IC50). On the procedure: MDA-MB-436 cells were seeded in a 96-well low-adsorption plate at 1200 cells/well. After the cells adhered to the wall overnight, the serially diluted compound was added, and the cells were incubated for another 10 days. The ATP level of the cells was then determined by CTG to evaluate the cell growth. The growth inhibition percentages and IC50 of the compounds were calculated compared to the DMSO group.

Data set [2] has as its system MDA-MB-436 xenograft tumor. The data set is described as follows: In vivo efficacy in MDA-MB-436 xenograft tumor model. The arrangement: species or system mouse. To be noted: for Tumor growth inhibition rate: after 28 days. On the procedure:
MDA-MB-436 cells were subjected to adherent culture in an L-15 medium containing 10% fetal bovine serum and 1% AA at 37° C. with 5% CO2. The cells were digested with trypsin and routinely passaged twice a week. When cells were maintained in the exponential growth phase with viability greater than 95%, the cells were collected, counted, and inoculated. Each 6- to 8-week-old female BALB/c nude mouse was inoculated with 10×10^6 MDA-MB-436 cells+Matrigel in a volume of 0.2 mL in the right cervicodorsal region. […] The compounds were orally administered once a day, and the tumor volume and body weight of the mice were measured twice a week. After 28 days of administration, the mice were sacrificed. Data were processed using software such as Excel.

A short description of data set [3]: In vivo pharmacokinetic experiment in CD-1 mice. To be noted: mouse, plasma, CD-1 female mice; for Vd: read-out: Vdss. How it is done:
CD-1 female mice aged 7 to 10 weeks were intravenously administered and orally administered at doses of 1 mg/kg and 10 mg/kg, respectively.
On the day of the experiment, animals in the intravenous group were given the corresponding compound by single injection via the tail vein at an administration volume of 2 mL/kg, and animals in the oral group were given the corresponding compound by single intragastric injection at an administration volume of 10 mL/kg. The animals were weighed before administration, and their administration volume was calculated according to their body weight. […] About […] of whole blood was collected through the orbital venous plexus at each time point and used to prepare plasma for concentration determination by high performance liquid chromatography-tandem mass spectrometry (LC-MS/MS). All animals were suffocated by CO2 after the PK samples were collected at the last time point. The plasma concentrations were processed using a non-compartmental model of Winnolin™ version 8.2 (Pharsight, mountain View, CA) pharmacokinetic software, and the pharmacokinetic parameters were calculated using a linear-log trapezoidal method.

The nature of data set [4]: In vitro liver microsomal stability, human. Format: in vitro ADME. To be noted: 1 μM compound, 500 μg/mL liver microsomes, NADPH.
Where [5] appears, read: 0 days (start of administration), BALB/c nude mice.
Setting [6] is: 28 days, oral once a day, […] day 1-7 and 3 mg/kg day 8-28.
The mark [7] stands for this setting: oral once a day, […] day 1-7 and 3 mg/kg day 8-28.

Usually half-life stands for how long it takes for the measured level to halve. As usually defined, the IC50 is the concentration that inhibits the measured activity by half. What is called AUC(0-t) is the area under the concentration-time curve up to a stated or last time point. Higher therefore signals high exposure. The term clearance denotes the rate of elimination divided by the concentration. A low value points to a low capacity for elimination. The Cmax is the highest concentration seen after dosing. The Tmax is the time from dosing to the highest level. For `CNC(=O)c1ccc(N2CCN(Cc3ccc4nc(C)c(=O)[nH]c4c3F)CC2)c(F)n1` [AZD9574, reference compound], the half-life at 1 μM in data set [1] is 2.1 h. Moreover, the IC50 in the data set with MDA-MB-436 cells is 9 nM. This compound also yielded a Mean tumor volume in data set [2] (setting [5]) of 212 mm^3. This compound had a Mean tumor volume in data set [2] (setting [6]) of 126 mm^3. Also, in data set [2] (setting [7]), the “Tumor growth inhibition rate” value is 141%. Also, in data set [3] (iv, Injection (1 mg/kg)), the AUC(0-t) was 2550 ng·h/mL, the clearance amounted to 6.42 mL/min/kg, the half-life is 4.54 h and the Vd amounted to 2.03 L/kg. Moreover, in data set [3] (Oral administration (10 mg/kg)), the AUC(0-t) was 25400 ng·h/mL, the highest level (Cmax) was 5140 ng/mL, the Tmax stood at 0.5 h and the bioavailability came to 99.5%. The half-life in data set [3] (Oral administration (10 mg/kg)) was 4.37 h. This compound also returned a half-life at 1 μM in data set [4] of 1.72 h.
Take `Cc1nc2ccc(CN3CCN(c4ccc(C(=O)N[C@H]5C[C@H]5F)nc4F)CC3)cc2[nH]c1=O` [Compound 1]: the half-life at 1 μM in data set [1] turned out to be 4.88 h. The IC50 in the data set on MDA-MB-436 cells turned out to be 1.6 nM. This compound also had a Mean tumor volume in data set [2] (setting [5]) of 212 mm^3. For the same compound, the Mean tumor volume in data set [2] (setting [6]) was determined as 87 mm^3. For the same compound, the “Tumor growth inhibition rate” value in data set [2] (setting [7]) is given as 159%. For the same compound, in data set [3] (iv, Injection (1 mg/kg)), the AUC(0-t) is 3680 ng·h/mL, the clearance stood at 4.52 mL/min/kg, the half-life was 3.13 h and the Vd stood at 1.13 L/kg. In data set [3] (Oral administration (10 mg/kg)), the AUC(0-t) was 60800 ng·h/mL, the Cmax worked out at 14800 ng/mL, the Tmax is 0.17 h and the bioavailability was found to be 166%. Further, in data set [3] (Oral administration (10 mg/kg)), the half-life is 2.08 h. In data set [4], this compound displayed a half-life at 1 μM of 8.23 h.
Take `Cc1nc2ccc(CN3CCN(c4ccc(C(=O)N[C@@H]5C[C@@H]5F)nc4F)CC3)cc2[nH]c1=O` [Compound 2]: the half-life at 1 μM in data set [1] stood at 5.15 h. For the same compound, the IC50 in the data set with MDA-MB-436 cells was found to be 2.4 nM. Further, in data set [3] (iv, Injection (1 mg/kg)), the AUC(0-t) came to 2120 ng·h/mL, the clearance worked out at 7.7 mL/min/kg, the half-life was 1.48 h and the Vd was 0.76 L/kg. Moreover, in data set [3] (Oral administration (10 mg/kg)), the AUC(0-t) worked out at 30900 ng·h/mL, the concentration peaked (Cmax) at 10600 ng/mL, the Tmax stood at 0.5 h and the bioavailability came to 146%. In addition, the half-life in data set [3] (Oral administration (10 mg/kg)) was 1.71 h. Moreover, the half-life at 1 μM in data set [4] was 3.88 h.
Turning to `CCc1nc2ccc(CN3CCN(c4ccc(C(=O)N[C@@H]5C[C@@H]5F)nc4F)CC3)cc2[nH]c1=O` [Compound 6], the IC50 in the data set on MDA-MB-436 cells is 2.6 nM.
With `Cc1nc2ccc(CN3CCN(c4ccc(C(=O)NC5CC5)nc4F)CC3)cc2[nH]c1=O` [Compound 9], the half-life at 1 μM in data set [1] came to 9.43 h. Moreover, the IC50 with MDA-MB-436 cells amounted to 3.7 nM. This compound displayed a Mean tumor volume in data set [2] (setting [5]) of 212 mm^3. This compound also registered a Mean tumor volume in data set [2] (setting [6]) of 185 mm^3. The “Tumor growth inhibition rate” value in data set [2] (setting [7]) is reported as 113%. Moreover, in data set [3] (iv, Injection (1 mg/kg)), the AUC(0-t) was 3590 ng·h/mL, the clearance is 4.62 mL/min/kg, the half-life was 3.41 h and the Vd was found to be 0.73 L/kg. Besides, in data set [3] (Oral administration (10 mg/kg)), the AUC(0-t) worked out at 60800 ng·h/mL, the concentration peaked (Cmax) at 16000 ng/mL, the Tmax stood at 0.08 h and the bioavailability was 192%. Also, the half-life in data set [3] (Oral administration (10 mg/kg)) was 1.89 h. In data set [4], this compound displayed a half-life at 1 μM of 3.8 h.
Take `Cc1nc2ccc(CN3CCN(c4ccc(C(=O)NC5CC5)nc4F)CC3)c(F)c2[nH]c1=O` [Compound 10]: in data set [1], the half-life at 1 μM is 14.4 h. Moreover, the IC50 in the data set with MDA-MB-436 cells was determined as 16 nM. In data set [3] (iv, Injection (1 mg/kg)), the AUC(0-t) is 2170 ng·h/mL, the clearance stood at 7.5 mL/min/kg, the half-life was 5.07 h and the Vd was 2.38 L/kg. For the same compound, in data set [3] (Oral administration (10 mg/kg)), the area under the curve AUC(0-t) was 20400 ng·h/mL, the highest level (Cmax) was 4530 ng/mL, the Tmax was 0.17 h and the bioavailability is 93%. Also, in data set [3] (Oral administration (10 mg/kg)), the half-life is 3.8 h. This compound displayed a half-life at 1 μM in data set [4] of 1.67 h.
Take `CCc1nc2ccc(CN3CCN(c4ccc(C(=O)N[C@H]5C[C@H]5F)nc4F)CC3)cc2[nH]c1=O` [Compound 11]: the IC50 in the data set on MDA-MB-436 cells is 1.7 nM.
